Measured values taken from US7419969B2 (Bristol-Myers Squibb Company, priority 2004, dated 2008).

Target: T1, HIV-integrase (Human immunodeficiency virus type 1 group M subtype B, UniProt P04585)
T1 construct: Recombinant integrase (0.26 ng) was incubated with the beads
Test: in-vitro activity against HIV-integrase (HIV Integrase Inhibition, SPA bead assay)
Type: biochemical
Conditions: Table 1; recombinant integrase, activity class
Procedure: To evaluate in-vitro activity against HIV-integrase, 5 pmole of biotin labeled substrate DNA was bound to 100 μg of Streptavidin coated PVT SPA beads (Amersham Pharmacia Biotech). Recombinant integrase (0.26 ng) was incubated with the beads for 90 min at 37° C. Unbound enzyme was removed by washing the complex followed by addition of inhibitors and […] of P33 labeled target DNA. The reaction was stopped by adding EDTA to a final concentration of 10 mM. Samples were counted in TopCountNXT (Packard) and the CPM was used as a measure of integration. The reaction condition was as described in Engelman, A. and Craigie, R. J. Vitrol. 1996, 69, 5908. The sequences of substrate and target DNA were described in Nucleic Acid Research 1994, 22, 1121.

O=C(NCc1ccc(F)cc1)c1nc2n(c(=O)c1O)CCCC21CCCC1 [Example 1, N-[(4-fluorophenyl)methyl]-7′,8′-dihydro-3′-hydroxy-4′-oxo-spiro[cyclopentane-1,9′(6′H)-[4H]pyrido[1,2-a]pyrimidine]-2′-carboxamide] and Cc1cc(CNC(=O)c2nc3n(c(=O)c2O)CCCC32CCCC2)ccc1F [Example 2, N-[(4-fluoro-3-methylphenyl)methyl]-7′,8′-dihydro-3′-hydroxy-4′-oxo-spiro[cyclopentane-1,9′(6′H)-[4H]pyrido[1,2-a]pyrimidine]-2′-carboxamide] fall in the same range of IC50: 0.001 to 0.01 µM for the first, 0.001 to 0.01 µM for the second.

O=C(NCc1ccccc1-n1cncn1)c1nc2n(c(=O)c1O)CCCC21CCCC1 [Example 3, N-[[2-(1H-1,2,4-triazol-1-yl)phenyl]methyl]-7′,8′-dihydro-3′-hydroxy-4′-oxo-spiro[cyclopentane-1,9′(6′H)-[4H]pyrido[1,2-α]pyrimidine]-2′-carboxamide] and O=C(NCc1ccc(F)cc1-n1cncn1)c1nc2n(c(=O)c1O)CCCC21CCCC1 [Example 4, N-[[4-fluoro-2-(1H-1,2,4-triazol-1-yl)phenyl]methyl]-7′,8′-dihydro-3′-hydroxy-4′-oxo-spiro[cyclopentane-1,9′(6′H)-[4H]pyrido[1,2-α]pyrimidine]-2′-carboxamide] fall in the same range of IC50: 0.001 to 0.01 µM for the first, 0.001 to 0.01 µM for the second.

O=C(NCc1cc(F)ccc1-n1cncn1)c1nc2n(c(=O)c1O)CCCC21CCCC1 [Example 5, N-[[5-fluoro-2-(1H-1,2,4-triazol-1-yl)phenyl]methyl]-7′,8′-dihydro-3′-hydroxy-4′-oxo-spiro[cyclopentane-1,9′(6′H)-[4H]pyrido[1,2-α]pyrimidine]-2′-carboxamide] and O=C(NCc1ccc(F)cc1-n1nccn1)c1nc2n(c(=O)c1O)CCCC21CCCC1 [Example 6, N-[[4-fluoro-2-(2H-1,2,3-triazol-2-yl)phenyl]methyl]-7′,8′-dihydro-3′-hydroxy-4′-oxo-spiro[cyclopentane-1,9′(6′H)-[4H]pyrido[1,2-α]pyrimidine]-2′-carboxamide] fall in the same range of IC50: 0.001 to 0.01 µM for the first, 0.001 to 0.01 µM for the second.

O=C(NCc1ccc(F)cc1-n1ccnc1)c1nc2n(c(=O)c1O)CCCC21CCCC1 [Example 7, N-[[4-fluoro-2-(1H-imidazol-1-yl)phenyl]methyl]-7′,8′-dihydro-3′-hydroxy-4′-oxo-spiro[cyclopentane-1,9′(6′H)-[4H]pyrido[1,2-α]pyrimidine]-2′-carboxamide] and CS(=O)(=O)c1cc(F)ccc1CNC(=O)c1nc2n(c(=O)c1O)CCCC21CCCC1 [Example 11, N-[[4-fluoro-2-(methylsulfonyl)phenyl]methyl]-7′,8′-dihydro-3′-hydroxy-4′-oxo-spiro[cyclopentane-1,9′(6′H)-[4H]pyrido[1,2-α]pyrimidine]-2′-carboxamide] fall in the same range of IC50: 0.001 to 0.01 µM for the first, 0.001 to 0.01 µM for the second.

First: O=C(NCc1ccccc1N1CCCCS1(=O)=O)c1nc2n(c(=O)c1O)CCCC21CCCC1 [Example 8, N-[[2-(tetrahydro-1,1-dioxido-2H-1,2-thiazin-2-yl)phenyl]methyl]-7′,8′-dihydro-3′-hydroxy-4′-oxo-spiro[cyclopentane-1,9′(6′H)-[4H]pyrido[1,2-α]pyrimidine]-2′-carboxamide]
Second: O=C(NCc1ccc(F)cc1N1CCCCS1(=O)=O)c1nc2n(c(=O)c1O)CCCC21CCCC1 [Example 9, N-[[4-fluoro-2-(tetrahydro-1,1-dioxido-2H-1,2-thiazin-2-yl)phenyl]methyl]-7′,8′-dihydro-3′-hydroxy-4′-oxo-spiro[cyclopentane-1,9′(6′H)-[4H]pyrido[1,2-α]pyrimidine]-2′-carboxamide]
The IC50 of the first is higher: 0.01 to 0.1 µM for the first, 0.001 to 0.01 µM for the second. The second is the more potent here.

CN(C)S(=O)(=O)c1cc(F)ccc1CNC(=O)c1nc2n(c(=O)c1O)CCCC21CCCC1 [Example 10, N-[[2-[(dimethylamino)sulfonyl]-4-fluorophenyl]methyl]-7′,8′-dihydro-3′-hydroxy-4′-oxo-spiro[cyclopentane-1,9′(6′H)-[4H]pyrido[1,2-α]pyrimidine]-2′-carboxamide] showed an IC50 of 0.001 to 0.01 µM.
